Reference: the RepoRT retention time repository (doi:10.1093/pcp/pcn183)
Where a name gives a salt, the structure may show the parent alone.

Experiment: RP, Waters ACQUITY UPLC BEH C18, 38 °C, 0.24 mL/min; A: water + 0.1% formic acid, pH 3; B: acetonitrile + 0.1% formic acid, pH 3; gradient (min/%B) 0/0 0.25/0 0.4/9 0.8/17 1.9/100 2.1/100 2.11/0 3/0
Conditions: stereoisomer not certain
`O=C(O)CCc1ccc(O)cc1` [3-(4-Hydroxyphenyl)-propionic acid] gave an LC retention time of 1.38 min.
Work on `NCC(N)C(=O)O` (racemic) [DL-2,3-Diaminopropionic acid monohydrochloride] yielded an LC retention time of 0.15 min.
In the case of `NC(CCC(=O)NC(CS)C(=O)NCC(=O)O)C(=O)O` [L-Glutathione (reduced form)], the LC retention time is reported as 0.95 min.
`Nc1nc2c(ncn2C2CC(O)C(COP(=O)(O)O)O2)c(=O)[nH]1` (stereo not given) [2'-deoxyguanosine 5'-monophosphate sodium salt hydrate] showed an LC retention time of 0.72 min.
`O=C(O)CCCCC1CCSS1` (racemic) [(+-)-alpha-Lipoic acid] showed an LC retention time of 1.74 min.
`CC(=O)NC(CC(C)C)C(=O)NC(CC(C)C)C(=O)NC(C=O)CCCN=C(N)N` (stereo not given) [Leupeptin hemisulfate salt] showed an LC retention time of 1.42 min.
For `OC[C@@H](O)[C@H](O)CO` (racemic) [DL-Threitol], the LC retention time was 0.17 min.
Compound `Nc1ncnc2c1ncn2C1OC(COP(=O)(O)O)C(O)C1O` (stereo not given) [Adenosine-5'-monophosphate sodium salt] has an LC retention time of 0.39 min.
For `CCC(C)C(=O)C(=O)O` (racemic) [(+-)-3-Methyl-2-oxovaleric acid sodium salt], the LC retention time was 1.21 min.
For `Cn1c(=O)c2c(ncn2C)n(C)c1=O` [Caffeine,Anhydrous], the LC retention time was 1.24 min.
With `CC(N)(CO)C(=O)O` (racemic) [alpha-Methyl-DL-serine] the LC retention time was 0.17 min.
In the case of `N#Cc1cccnc1` [3-cyanopyridine], the LC retention time is reported as 1.18 min.
For `NC(CCSCC(N)C(=O)O)C(=O)O` (stereo not drawn) [L(+)-Cystathionine], the LC retention time was 0.16 min.
Compound `O=c1cccc[nH]1` [2-Hydroxypyridine] has an LC retention time of 0.68 min.
Work on `NCCCCN=C(N)N` [Agmatine sulfate salt] yielded an LC retention time of 0.15 min.
With `O=c1ccn(C2CC(O)C(COP(=O)(O)O)O2)c(=O)[nH]1` (stereo not given) [2'-Deoxyuridine-5'-monophosphate disodium salt] the LC retention time was 0.4 min.
Compound `NC1(C(=O)O)CCCC1` [1-Amino-1-cyclopentanecarboxylic acid] has an LC retention time of 0.32 min.
Work on `O=C(O)/C=C/c1ccc(O)cc1` [4-Coumaric acid] yielded an LC retention time of 1.41 min.
Compound `COc1cc(C=CC(=O)O)cc(OC)c1O` [Sinapic acid] has an LC retention time of 1.44 min.
Work on `COc1cc2c(cc1O)C1Cc3ccc(OC)c(O)c3CN1CC2` (stereo not given) [Scoulerin] yielded an LC retention time of 1.37 min.
In the case of `OCC1OC(OC2C(O)C(CO)OC2(CO)OC2OC(CO)C(O)C(O)C2O)C(O)C(O)C1O` [D-(+)-Melezitose hydrate], the LC retention time is reported as 0.21 min.
Compound `O=C(O)[C@H](O)[C@@H](O)[C@H](O)[C@H](O)CO` [D-Gluconic acid sodium salt] has an LC retention time of 0.17 min.
Compound `CC(C)[C@H](N)C(=O)O` [L-Valine] has an LC retention time of 0.25 min.
Compound `COc1cc(C=CCO)cc(OC)c1O` [Sinapyl alcohol] has an LC retention time of 2.13 min.
`COc1ccc(-c2cc(=O)c3c(O)cc(OC4OC(COC5OC(C)C(O)C(O)C5O)C(O)C(O)C4O)cc3o2)cc1` (stereo not given) [Linarin] gave an LC retention time of 1.54 min.
Compound `CC(C)[C@@H](O)C(=O)O` [D-alpha-Hydroxyisovaleric acid] has an LC retention time of 1.14 min.
Work on `O=c1cc(-c2ccc(O)c(OC3OC(CO)C(O)C(O)C3O)c2)oc2cc(OC3OC(CO)C(O)C(O)C3O)cc(O)c12` (stereo not given) [luteolin-3',7-di-O-glucoside] yielded an LC retention time of 1.35 min.
In the case of `O=C(O)Cc1ccccc1O` [2-Hydroxyphenylacetic acid], the LC retention time is reported as 1.38 min.
In the case of `CC1OC(OCC2OC(Oc3c(-c4ccccc4O)oc4cc(O)cc(O)c4c3=O)C(O)C(O)C2O)C(O)C(O)C1O` (stereo not given) [Datiscin], the LC retention time is reported as 1.4 min.
Work on `C[S+](CCC(N)C(=O)[O-])CC1OC(n2cnc3c(N)ncnc32)C(O)C1O` [S-(5'-Adenosyl)-L-methionine chloride] yielded an LC retention time of 0.19 min.
`O=c1cc(-c2ccc(O)c(O)c2)oc2c(C3OC(CO)C(O)C(O)C3O)c(O)cc(O)c12` (stereo not given) [Orientin] showed an LC retention time of 1.35 min.
`Nc1ncnc2c1ncn2C1CC(O)C(CO)O1` (stereo not given) [2'-Deoxyadenosine monohydrate] showed an LC retention time of 1.07 min.
Work on `O=C[C@H](O)[C@H](O)COP(=O)(O)O` [D-Erythrose-4-phosphate sodium salt] yielded an LC retention time of 0.16 min.
In the case of `[NH3+]CCCCCC(=O)[O-]` [6-Aminohexanoic acid], the LC retention time is reported as 0.41 min.
Work on `COc1ccc(C=CC(=O)O)cc1` [4-Methoxycinnamic acid] yielded an LC retention time of 1.65 min.
For `O=c1[nH]cnc2c1ncn2C1CC(O)C(COP(=O)(O)O)O1` (stereo not given) [2'-Deoxyinosine-5'-monophosphate sodium salt], the LC retention time was 0.7 min.
With `OCC1OC(OC2C(CO)OC(O)(CO)C2O)C(O)C(O)C1O` (stereo not given) the LC retention time was 0.19 min.
Compound `CC(=O)NCCCCN` [N-acetyl putrescine hydrochloride] has an LC retention time of 0.23 min.
In the case of `O=C1CC(c2ccc(O)cc2)Oc2cc(O)cc(O)c21` (stereo not given) [naringenin], the LC retention time is reported as 1.67 min.
`COc1ccc(-c2coc3cc(OC4OC(CO)C(O)C(O)C4O)cc(O)c3c2=O)cc1` (stereo not given) [Sissotrin] gave an LC retention time of 1.61 min.
For `CSCC[C@H](N)CC(=O)O` [L-beta-homomethionine-HCl], the LC retention time was 0.66 min.
`NCCCCNCCCN` [Spermidine] showed an LC retention time of 0.14 min.
With `COc1cc(CNC(=O)CCCCC=CC(C)C)ccc1O` [Capsaicin] the LC retention time was 1.93 min.
With `CC(C)=CCNc1ncnc2nc[nH]c12` [6-(gamma,gamma-Dimethylallylamino)purine] the LC retention time was 1.32 min.
In the case of `CC1OC(Oc2c(-c3ccc(O)c(O)c3)oc3cc(O)cc(O)c3c2=O)C(O)C(O)C1O` (stereo not given) [Quercitrin], the LC retention time is reported as 1.46 min.
`O=C(O)c1cc(=O)c2ccccc2[nH]1` [Kynurenic acid] showed an LC retention time of 1.19 min.
Work on `CSC[C@H](N)C(=O)O` [S-Methyl-L-cysteine] yielded an LC retention time of 0.2 min.
In the case of `CC(N)(Cc1cnc[nH]1)C(=O)O` (racemic) [alpha-Methyl-DL-histidine dihydrochloride], the LC retention time is reported as 0.16 min.
`O=C(O)[C@@H]1CCCN1` [L-Proline] gave an LC retention time of 0.19 min.
Compound `O=C(O)C=C(CC(=O)O)C(=O)O` [trans-Aconitic acid] has an LC retention time of 0.63 min.
`Cn1c(=O)[nH]c2ncn(C)c2c1=O` [1,7-Dimethylxanthine] gave an LC retention time of 1.15 min.
With `O=c1cc(-c2ccc(O)cc2)oc2c(C3OC(CO)C(O)C(O)C3O)c(O)cc(O)c12` (stereo not given) [Vitexin] the LC retention time was 1.39 min.
With `O=C1c2c(O)cc(O)cc2OC(c2ccc(O)c(O)c2)C1O` (racemic) [(+-)-Taxifolin] the LC retention time was 1.45 min.
In the case of `NC(=O)c1ncn(C2OC(COP(=O)(O)O)C(O)C2O)c1N` (stereo not given), the LC retention time is reported as 0.32 min.
In the case of `O=P(O)(O)OCC(O)CO` (racemic) [rac-Glycerol 3-phosphoate disodium salt hexahydrate], the LC retention time is reported as 0.16 min.
`Nc1nc2nc[nH]c2c(=O)[nH]1` [Guanine] gave an LC retention time of 0.32 min.
Work on `Cc1ncc(CO)c(CO)c1O` [Pyridoxine] yielded an LC retention time of 0.53 min.
`COc1cc(-c2oc3cc(O)cc(O)c3c(=O)c2OC2OC(CO)C(O)C(O)C2O)ccc1O` (stereo not given) [isorhamnetin-3-O-glucoside] gave an LC retention time of 1.45 min.
With `NCC(O)CCC(N)C(=O)O` (racemic) [DL-5-Hydroxylysine  hydrochloride] the LC retention time was 0.14 min.
Compound `O=Cc1c[nH]c2ccccc12` [Indole-3-carboxyaldehyde] has an LC retention time of 1.51 min.
In the case of `COc1ccc(C2CC(=O)c3c(O)cc(OC4OC(COC5OC(C)C(O)C(O)C5O)C(O)C(O)C4O)cc3O2)cc1O` (stereo not given) [Hesperidin], the LC retention time is reported as 1.45 min.
With `N[C@@H](Cc1ccc(O)c(O)c1)C(=O)O` [3,4-Dihydroxy-L-phenylalanine] the LC retention time was 0.4 min.
Compound `Nc1ccn(C2CC(O)C(CO)O2)c(=O)n1` (stereo not given) [2'-Deoxycytidine] has an LC retention time of 0.45 min.
`N[C@@H](CO)C(=O)O` [L-Serine] showed an LC retention time of 0.16 min.
With `O=C(O)C[C@@H]1CCCN1` [L-beta-homoproline-HCl] the LC retention time was 0.25 min.
`Cc1cc2nc3cc(C)c(N)cc3[n+](-c3ccccc3)c2cc1N` [Safranine] showed an LC retention time of 1.57 min.
With `OCC(O)C(O)C(O)CO` (stereo not given) the LC retention time was 0.17 min.
Work on `CC(CN)C(=O)O` (racemic) [DL-3-Aminoisobutyric acid] yielded an LC retention time of 0.19 min.
`Nc1ncnc2c1ncn2C1OC(CO)C(OP(=O)(O)O)C1O` (stereo not given) [Adenosine 3'-monophosphate From Yeast] gave an LC retention time of 0.64 min.
For `O=[N+]([O-])c1ccc(OP(=O)(O)O)cc1` [4-Nitrophenyl phosphate disodium salt hexahydrate], the LC retention time was 0.92 min.
Compound `O=P(O)(O)OCC1OC(O)CC1O` (stereo not given) [2-Deoxyribose-5-phosphate sodium salt] has an LC retention time of 0.18 min.
For `CC([NH3+])C(=O)NC(C)C(=O)[O-]` [D-Ala-D-ala], the LC retention time was 0.19 min.
Work on `NC1(C(=O)O)CC1` [1-Aminocyclopropane-1-carboxylic acid] yielded an LC retention time of 0.18 min.
In the case of `C[N+](C)(C)C[C@H](O)CC(=O)[O-]` [L-Carnitine hydrochloride], the LC retention time is reported as 0.18 min.
`N=C(N)c1ccccc1` [Benzamidine hydrochloride hydrate] showed an LC retention time of 0.78 min.
`NC(N)=NCC(=O)O` [Glycocyamine] gave an LC retention time of 0.18 min.
Work on `O=C(O)CCl` [Chloroacetic acid] yielded an LC retention time of 0.36 min.
With `CC(C(=O)O)C(=O)O` [Methylmalonic acid] the LC retention time was 0.54 min.
Compound `Nc1ccc(C(=O)O)cc1` [4-Aminobenzoic acid] has an LC retention time of 1.13 min.
For `Cc1ncc(COP(=O)(O)O)c(C=O)c1O` [pyridoxal-5'-phosphate hydrate], the LC retention time was 0.39 min.
Compound `O=C(O)CNC(=O)Cc1ccccc1` [Phenaceturic acid] has an LC retention time of 1.36 min.
In the case of `CN1CCCC1c1cccnc1` (racemic) [(-)-Nicotine ( solution 1.0 mg/mL+/-5% in methanol)], the LC retention time is reported as 0.47 min.
With `CC(CCC(=O)O)C(=O)O` (stereo not given) [2-Methylglutaric Acid] the LC retention time was 1.16 min.
With `OC1COC(OC2COC(O)C(O)C2O)C(O)C1O` (stereo not given) [Xylobiose] the LC retention time was 0.18 min.
`CCCCCCCCCCCCCC=CC(O)C(N)COC1OC(CO)C(O)C(O)C1O` [D-Glucosyl-beta1-1'-D-erythoro-Sphingosine] showed an LC retention time of 1.84 min.
